The source of these data is PMC12267423, “Comparisons of pharmacokinetics of glimepiride in combination with Ojeok-san versus glimepiride alone: an open-label, one-sequence, two-treatment controlled clinical study” (Scientific Reports, 2025).

The CL/F is clearance divided by bioavailability, as obtained after extravascular dosing. A word on the AUC(0-inf): it is total exposure, with the tail of the curve extrapolated. Read a high AUC(0-inf) as more exposure. The term Cmax denotes the maximum level reached in the sampled fluid or tissue. By AUC(0-t) is commonly meant the area under the concentration-time curve up to a stated or last time point. A word on the half-life: it is how long it takes for the measured level to halve.

Like-named read-outs stand apart in the source and are kept apart here.

Series [1] in a line: Pharmacokinetics of glimepiride and M1 in plasma, glimepiride alone versus with Ojeok-san, clinical crossover study. The conditions noted are these: for Reduction of mean Cmax with OJS compared to glimepiride monotherapy: absorption phase; for CL/F / t1/2,0–24 h / AUC(0-t) / half-life / t1/2,0–48 h: mean ± SD; for Tmax: median (min–max); for Geometric mean ratio of AUC0–24 h (%, 90% CI) / Geometric mean ratio of AUC0–48 h (%, 90% CI) / Geometric mean ratio of AUCinf (%, 90% CI) / Geometric mean ratio of Cmax (%, 90% CI): glimepiride and OJS co-administration to glimepiride alone.
Description: (§1) Glimepiride (4 mg) was orally administered once daily on days 1–2 during period 1. Subsequently, the 4.35 g/pack of OJS was orally administered three times a day on days 4–11 during period 2, and glimepiride (4 mg) was co-administered once a day on days 9–10 during period 2. Glimepiride (4 mg) was administered at approximately 12:00 PM on days 1 and 9 and at approximately 8:00 AM on days 2 and 10. The 4.35 g/pack of OJS was administered thrice a day at 7:00–10:00 AM, 12:00–03:00 PM, and 6:00–9:00 PM on days 4–11. However, during hospitalization, OJS was administered at approximately 7:00 AM on days 9–10, just 1 h before glimepiride administration.
(§2) For the PK analysis of glimepiride, blood samples were collected immediately before the glimepiride administration on days 1 and 9 on the first day of each period. On days 2 and 10, blood samples were collected immediately before glimepiride administration (0 h) and 0.25, 0.5, 1, 1.5, 2, 2.5, 3, 3.5, 4, 5, 6, 8, 12, 15, 24, and 48 h after glimepiride administration.
(§3) The analyte was separated using a YMC hydrosphere C18 (50 × 2.0 mm, 3 μm; YMC, USA) at 40 ℃. The mobile phase consists of 5 mM ammonium formate and 100% acetonitrile (20:80, v/v) with a flow rate of 180 µL/min. The compounds were detected in the positive mode using an electrospray ionization source. […] A linear response of glimepiride was shown in the range of 2 to 1000 ng/mL (r^2 ≥ 0.9970), and the lower limit of quantification was determined as 2 ng/mL.
(§4) PK parameters were calculated using the noncompartmental method in Phoenix WinNonlin 8.3 (Certara USA Inc., Princeton, NJ, USA). […] The terminal elimination rate constant (kz) was estimated from the regression of the log-linear decrease in the plasma concentration-time profile. The terminal elimination half-life (t1/2) was calculated as the natural logarithm of 2 divided by kz. The area under the plasma concentration-time curve (AUC) from dosing to 24 h post-dosing (AUC0–24 h) and AUC0–48 h from dosing to 48 h post-dosing were calculated using the linear/log trapezoidal rule. The AUC from 0 to infinity (AUCinf) was calculated as AUC0–24 h + C24 / kz, where kz is the terminal elimination rate constant estimated from linear regression of the terminal phase of the log-linear plot of the plasma concentration-time curve. The metabolic ratio was calculated by dividing the M1 AUC0–24 h by glimepiride AUC0–24 h.
(§5) All statistical analyses were performed using SAS 9.4 (SAS Institute Inc. Cary, NC, USA). Descriptive statistics were calculated for continuous variables.

The test system of the next series is healthy male subjects. The experiment in a line: Safety and tolerability (adverse events) in healthy male subjects. It is filed as in vivo, human. The procedure:
Safety and tolerability were assessed during the study period. The occurrence of AEs was monitored, and the investigators assessed its causal relationship with the study drugs. Vital signs, 12-lead electrocardiography (ECGs), physical examinations, and laboratory tests were performed and reviewed.

The next series deals with glucose. Further details: method as in PMID 33262578. The conditions noted are these: 4 mg glimepiride, 75 g glucose load; cited from earlier work.
Series [2] has as its system serum glucose concentration. The experiment in a line: Oral glucose tolerance test (pharmacodynamics) before and after glimepiride with or without OJS. The settings on record: glucose 50 g (glimepiride alone), 75 g (with OJS).
Description: Oral glucose tolerance tests (OGTT) were performed before and after glimepiride administration on days 1 and 9, and days 2 and 10, respectively, to assess the PD effects (Supplementary information).
The PD parameters included the maximum serum glucose concentration (Gmax), 2-hour serum glucose level (PP2), and area under the glucose concentration-time curve for 4 h after glucose administration (AUG0–4 h), which was calculated using the linear trapezoidal rule. The change values of Gmax, PP2, and AUG0–4 h were calculated by subtracting the baseline serum glucose concentrations from the corresponding post-administration values at each time point, following glimepiride administration with or without OJS. The maximum of these difference values was defined as the change in Gmax, and the value at 2 h as the change in PP2. The area under the curve from 0 to 4 h was calculated using linear trapezoidal method and defined as change in AUG0 − 4 h. Additionally, the percent change (%change) was calculated as: 100×(change value / baseline value).
The initial protocol stipulated the administration of 75 g of glucose; however, due to a lapse in protocol adherence by the administering clinical research nurse, which involved an incorrect glucose dosage of 50 g stemming from a failure to accurately verify the medication label, a deviation occurred (a report of this protocol violation was filed with the Institutional Review Board). Consequently, the plasma glucose assessment post-glimepiride monotherapy was conducted using 50 g of glucose, whereas the evaluation of the combined effect of glimepiride and OJS during the second admission utilized 75 g of glucose, introducing variance in glucose exposure across the two evaluations.
The conditions of series [3]: cited from earlier work.
For series [4] the following is noted: human, in vivo, 4 mg.
Description: as §1, §2, §3, §4, §5
Where [5] appears, read: glimepiride 4 mg qd + OJS 4.35 g tid, N = 13.
Setting [6] is: glimepiride 4 mg qd alone, N = 16.
Where [7] appears, read: male, human, plasma, oral, 4 mg.
Setting [8] is: OGTT after glimepiride, mean ± SD.
Setting [9] is: glimepiride administered with a meal.

On to `CCC1=C(C)CN(C(=O)NCCc2ccc(S(=O)(=O)NC(=O)N[C@H]3CC[C@H](C)CC3)cc2)C1=O` [Glimepiride], for which, in series [1], the “Reduction of mean Cmax with OJS compared to glimepiride monotherapy” value is given as “approximately 16.86%”; the “Geometric mean ratio of AUC0–24 h (%, 90% CI)” value is 86.43 (77.56–96.31) %; the “Geometric mean ratio of AUC0–48 h (%, 90% CI)” value is on record as 86.98 (77.49–97.63) %; the “Geometric mean ratio of AUCinf (%, 90% CI)” value is 89.15 (81.72–97.26) %. Moreover, the “Geometric mean ratio of Cmax (%, 90% CI)” value in series [1] was 83.14 (69.96–98.81) %. For the same compound, in series [1] (setting [5]), the apparent clearance (CL/F) was 3.68 ± 1.54 L/h. For the same compound, in series [1] (glimepiride 4 mg qd alone, day 2, plasma, N = 16), the Tmax is 4.5 (2.0–5.0) h. For the same compound, in series [1] (setting [6]), the CL/F stood at 3.28 ± 1.16 L/h and the “t1/2,0–24 h” value was 8.53 ± 4.69 h. In addition, in series [1] (listed as glimepiride), the “Geometric mean ratio of AUC0–24 h (%, 90% CI)” value is reported as 86.43 (77.56, 96.31) % and the “Geometric mean ratio of Cmax (%, 90% CI)” value is on record as 83.14 (69.96, 98.81) %. In series [1] (setting [7]), the AUC(0-inf) amounted to 1380 ± 507 ng·h/mL and the Cmax came to 251 ± 87 ng/mL. For the same compound, the area under the curve AUC(0-t) in series [1] (male, human, plasma, oral, 4 mg, AUC0–24 h, glimepiride 4 mg qd alone, N = 16) amounted to 1280 ± 483 ng·h/mL. Further, the AUC(0-t) in series [1] (male, human, plasma, oral, 4 mg, AUC0–48 h, glimepiride 4 mg qd alone, N = 16) was determined as 1300 ± 519 ng·h/mL. Further, the Tmax in series [1] (male, human, plasma, oral, 4 mg, Tmax, glimepiride 4 mg qd alone, day 2, plasma, N = 16) was found to be 4.3 h. The same compound showed a half-life in series [1] (male, human, plasma, oral, 4 mg, t1/2,0–24 h, glimepiride 4 mg qd alone, N = 16) of 510 min. The half-life in series [1] (male, human, plasma, oral, 4 mg, t1/2,0–48 h, glimepiride 4 mg qd alone, N = 16) was 524 ± 287 min. The AUC(0-t) in series [1] (male, human, plasma, oral, AUC0–24 h, glimepiride 4 mg qd + OJS 4.35 g tid, N = 13) turned out to be 1130 ± 406 ng·h/mL. In series [1] (male, human, plasma, oral, AUC0–48 h, glimepiride 4 mg qd + OJS 4.35 g tid, N = 13), the area under the curve AUC(0-t) was 1160 ± 468 ng·h/mL. The Tmax in series [1] (male, human, plasma, oral, Tmax, glimepiride 4 mg qd + OJS 4.35 g tid, day 10, plasma, N = 13) is 5 h. Moreover, in series [1] (male, human, plasma, oral, t1/2,0–24 h, glimepiride 4 mg qd + OJS 4.35 g tid, N = 13), the half-life is 610 ± 290 min. Moreover, the half-life in series [1] (male, human, plasma, oral, t1/2,0–48 h, glimepiride 4 mg qd + OJS 4.35 g tid, N = 13) was 560 ± 181 min. In addition, the “Metabolic ratio (M1 AUC0–24 h / glimepiride AUC0–24 h), co-administration versus glimepiride alone” value in series [1] (p = 0.1209) was “not significantly different”. Further, the “Subjects reporting adverse events” value in the series on healthy male subjects (period 1 (glimepiride alone), 6 out of 16 subjects) came to 37.5%. Moreover, in the series on healthy male subjects (period 2 (OJS with glimepiride), 2 out of 13 subjects), the “Subjects reporting adverse events” value is reported as 15.4%. Besides, in the series with glucose, the “AUG0–3 h after glimepiride treatment” value is 291.8 ± 48.5 mg·h/dL, the “Gmax after glimepiride treatment” value is reported as 134.4 ± 26.9 mg/dL and the “Reduction of Gmax” value was 68.9 ± 25.1 mg/dL. Besides, in series [2] (2-hour serum glucose after glimepiride, mean ± SD), the “PP2, Post-” value is on record as 95.75 ± 29.96 mg/dL. For the same compound, the “AUG0–4 h % Change” value in series [2] (100×(change value / baseline value)) is given as 16.15 ± 5.07%. For the same compound, in series [2] (setting [8]), the “AUG0–3h, Post-” value amounted to 334.12 ± 44.24 mg·h/dL and the “Gmax, Post-” value is given as 173.88 ± 20.38 mg/dL. Further, in series [2], the “AUG0–3h % Change” value is given as 15.54 ± 5.82%, the “Gmax % Change” value came out at 25.48 ± 8.23% and the “PP2 % Change” value is on record as 16.88 ± 14.00%. In addition, in series [2] (post- versus pre-glimepiride), the “AUG0–3h Change” value amounted to 61.07 ± 29.20 mg·h/dL, the “AUG0–4 h Change” value worked out at 77.01 ± 32.47 mg·h/dL, the “Gmax Change” value stood at 45.63 ± 16.39 mg/dL and the “PP2 Change” value amounted to 17.94 ± 13.67 mg/dL. In addition, the “Metabolites recovered in the urine” value in series [3] was “approximately 60%”. In addition, in series [3] (co-administered with aspirin), the “Reduction of mean AUC” value is given as 34% and the “Reduction of mean Cmax” value is 4%. In addition, the “Time to peak plasma concentrations” value in series [3] (following oral administration) is 2 to 3 h. Further, in series [3] (setting [9]), the “Decrease of mean AUC” value is given as 9% and the “Decrease of mean Cmax” value was 8%. Also, in series [3] (with colesevelam), the “Reduction of AUC” value is listed as 18% and the “Reduction of Cmax” value was 8%.
For the compound `CCC1=C(C)CN(C(=O)NCCc2ccc(S(=O)(=O)NC(=O)NC3CCC(CO)CC3)cc2)C1=O` (stereo not drawn) [M1, hydroxy glimepiride], in series [1], the “Reduction of mean Cmax with OJS compared to glimepiride monotherapy” value was roughly 14.67%; the “Geometric mean ratio of AUC0–24 h (%, 90% CI)” value is 91.77 (85.53–98.46) %; the “Geometric mean ratio of AUC0–48 h (%, 90% CI)” value is 92.48 (85.29–100.26) %; the “Geometric mean ratio of AUCinf (%, 90% CI)” value is 95.05 (89.10–101.40) %. Moreover, the “Geometric mean ratio of Cmax (%, 90% CI)” value in series [1] is 85.33 (77.77–93.62) %. In series [1] (setting [5]), the CL/F is reported as 17.13 ± 4.89 L/h, the “t1/2,0–24 h” value worked out at 8.04 ± 2.95 h and the “t1/2,0–48 h” value was 8.02 ± 2.80 h. In series [1] (setting [6]), the CL/F is listed as 16.40 ± 4.00 L/h, the “t1/2,0–24 h” value stood at 6.73 ± 1.35 h and the “t1/2,0–48 h” value is 7.08 ± 1.97 h. Moreover, in series [4], the “AUC0–24 h” value is 237.85 ± 61.69 ng·h/mL, the “AUC0–48 h” value is 243.05 ± 70.10 ng·h/mL, the AUCinf came to 258.17 ± 67.99 ng·h/mL and the Cmax came to 32.61 ± 8.08 ng/mL. Further, the Tmax in series [4] is recorded as 5.0 (3.0–6.0) h.
Regarding `Cc1ccc(-c2cc(C(F)(F)F)nn2-c2ccc(S(N)(=O)=O)cc2)cc1` [celecoxib], in series [3] (co-administration with OJS), the “Decrease of AUC” value is 11.5% and the “Decrease of Cmax” value was 27.5%.
